Calls of active or inactive are those of the source. No cut-off for these calls is given here.

Experiment [1] concerns Saccharomyces cerevisiae. Description: Inhibition of Pdrp5-mediated rhodamine 6G accumulation in Saccharomyces cerevisiae AD124567 at 20 uM after 2 hrs by fluorescence microscopic analysis.
Experiment [2] can be described thus: Inhibition of Pdr5p-dependent ATPase activity in Saccharomyces cerevisiae AD124567 assessed as release of inorganic phosphate after 60 mins […].
Experiment [3] is described as follows: Inhibition of Pdr5p-dependent UTPase activity in Saccharomyces cerevisiae AD124567 assessed as release of inorganic phosphate after 60 mins […].
In experiment [4] the test system is Saccharomyces cerevisiae. In words: Inhibition of Prdp5 in Saccharomyces cerevisiae AD124567 assessed as inhibition of glucose-dependent rhodamine 6G efflux after 13 mins by spectrofluorimetry in presence of 2-deoxyglucose treated for 30 mins before compound addition.
For experiment [5], the system named is Saccharomyces cerevisiae. In words: Antimicrobial activity against Pdrp5 overexpressing Saccharomyces cerevisiae AD124567 assessed as growth yield reduction at 200 uM after 48 hrs by chemosensitization assay. As to conditions: AD124567, 48 h, read-out: GI. Format: functional.
Experiment [6] has as its system Saccharomyces cerevisiae. In words: Inhibition of Prdp5 in Saccharomyces cerevisiae AD124567 assessed as inhibition of glucose-dependent rhodamine 6G efflux after 13 mins at 200 uM by spectrofluorimetry in presence of 2-deoxyglucose treated for 30 mins before compound addition.
The test system of experiment [7] is Saccharomyces cerevisiae. Description: Antimicrobial activity against Saccharomyces cerevisiae AD124567 assessed as growth yield reduction at 200 uM after 48 hrs by chemosensitization assay. As to conditions: AD124567, 48 h, read-out: GI.
Experiment [8] relates to Saccharomyces cerevisiae. In words: Inhibition of Prdp5 in Saccharomyces cerevisiae AD124567 assessed as inhibition of glucose-dependent rhodamine 6G efflux after 2 hrs at 100 uM by fluorescence microscopy.

For `C=CC[C@@H]1/C=C(\C)C[C@H](C)C[C@H](OC)[C@H]2O[C@@](O)(C(=O)C(=O)N3CCCC[C@H]3C(=O)O[C@H](/C(C)=C/[C@@H]3CC[C@@H](O)[C@H](OC)C3)[C@H](C)[C@@H](O)CC1=O)[C@H](C)C[C@@H]2OC`, the inhibition entry in experiment [1] was “Active”.
For the compound `Nc1ncc(/C=C/CNC(=O)c2cc(Br)c(Br)[nH]2)[nH]1` [OROIDIN], the results for the half-inhibitory concentration (IC50) in experiment [2] and in experiment [3] were 20 µM and 13 µM, respectively. Further, the inhibition entry in experiment [4] was “Dose-dependent effect”; in experiment [6], 60%. Moreover, the inhibition of growth at 200 µM in experiment [5] and in experiment [7] was 30% each time. Besides, the inhibition entry in experiment [8] was “Active”.

For orientation: inhibition means the change of the read-out against control, counted positive when it falls. In general, IC50 refers to the concentration that gives 50% inhibition.
